Assay results taken from ChEMBL document CHEMBL1122358, “Synthesis and central dopaminergic activities of (+/-)-hexahydro-7H-indolo[3,4-gh][1,4]benzoxazine derivatives [(+/-)-9-oxaergolines]” (J Med Chem, 1983).

Legend:
[1] = system: Canis familiaris; experiment: Minimum effective dose (sc) to induce emesis in male or female Beagle dogs; type: functional; settings: Canis lupus familiaris, read-out: MED
[2] = Lethal dose in male mice (administered ip), activity expressed as LD50 values.; type: toxicity, organism-based; settings: mouse, in vivo
[3] = system: Rattus norvegicus; experiment: Inhibitory activity against plasma prolactin level in male Sprague-Dawley rats after peroral administration (5mg/Kg), activity expressed as mean duration for submaximal inhibition; type: functional
[4] = species: Rattus norvegicus; experiment: Minimum effective dose required to decrease striatal DA turnover in rats; type: functional; settings: read-out: MED
[5] = species: Rattus norvegicus; experiment: Minimum effective dose required to induce rotations in rats with unilateral lesion in the nigrostriatal pathway; type: functional; settings: read-out: MED
[6] = species: Rattus norvegicus; experiment: Minimum effective dose required to produce stereotypies in rats; type: functional; settings: read-out: MED
[7] = species: Rattus norvegicus; experiment: Inhibitory activity against prolactin release in rat anterior pituitary cells; type: functional, cell-based; settings: Pituitary gland cell
[8] = target: Dopamine receptor (Bos taurus, UniProt Q95136+P20288); experiment: In vitro binding affinity towards dopamine receptor was determined in bovine anterior pituitary membrane using [3H]dihydroergocriptine as the radioligand; type: cell membranes
[9] = target: Dopamine receptor; experiment: In vitro binding affinity towards dopamine receptor was determined in rat striatal membrane using [3H]spiroperidol as the radioligand; type: cell membranes, Striatum
[10] = system: Rattus norvegicus; experiment: Inhibitory activity against plasma prolactin level in male Sprague-Dawley rats after peroral administration (5mg/Kg), activity expressed as mean duration for submaximal inhibition; Duration 3-4h; type: functional
[11] = system: Rattus norvegicus; experiment: Inhibitory activity against plasma prolactin level in male Sprague-Dawley rats after peroral administration (5mg/Kg), activity expressed as mean duration for submaximal inhibition; Duration 4-8h; type: functional
[12] = system: Rattus norvegicus; experiment: Inhibitory activity against plasma prolactin level in male Sprague-Dawley rats after peroral administration (5mg/Kg), activity expressed as mean duration for submaximal inhibition; Duration 3-6h; type: functional

Row | SMILES | minimal effective dose [1] [mg/kg] | LD50 [2] [mg/kg] | Duration [3] [h] | minimal effective dose [4] [mg/kg] | minimal effective dose [5] [mg/kg] | minimal effective dose [6] [mg/kg] | IC50 [7] [nM] | IC50 [8] [nM] | IC50 [9] [nM] | Duration [10] [h] | Duration [11] [h] | Duration [12] [h]
1 | CCCN1C[C@H](CSC)C[C@@H]2c3cccc4[nH]cc(c34)C[C@H]21.CS(=O)(=O)O [PERGOLIDE MESYLATE] | 0.05 | 100 | >22 | 0.05 | 0.02 | 0.1 | 0.07 |  |  |  |  | 
2 | CN1CCO[C@@H]2c3cccc4c3c(cn4C)C[C@H]21 | 1 | > 200 |  | 10 | 2 | 20 | > 10000 | 4800 | 4500 | 3 |  | 
3 | CN1CCO[C@@H]2c3cccc4[nH]cc(c34)C[C@H]21 | 0.1 |  |  | 0.1 | 0.2 | 0.5 | 17 | 2500 | 800 |  | 4 | 
4 | CCCN1CCO[C@@H]2c3cccc4[nH]cc(c34)C[C@H]21 | 0.01 | 150 | >22 | 0.05 | 0.01 | 0.1 | 0.06 | 40 | 70 |  |  | 
5 | c1cc2c3c(c[nH]c3c1)C[C@H]1NCCO[C@H]21 | > 0.5 | 150 | 3 | 1 | 0.5 | 5 | 300 | 7000 | 5000 |  |  | 
6 | CCCN1CCO[C@@H]2c3cccc4[nH]c(Br)c(c34)C[C@H]21 | > 0.5 | > 200 | >12 | 0.5 | 0.2 | 0.2 | 0.2 | 500 | 250 |  |  | 
7 | CCCN1CCO[C@@H]2c3cccc4c3[C@@H](CN4)C[C@H]21 | 0.1 | 150 | >12 | 0.1 | 0.1 | 0.1 | 0.1 | 300 | 600 |  |  | 
8 | CN1CCO[C@@H]2c3cccc4[nH]c(Br)c(c34)C[C@H]21 | 0.5 | 35 |  | 1 | 1 | 20 | 100 | 3000 | 1000 |  |  | 3
